Data published in the NIST ThermoML archive (doi:10.1021/je300590v).

Test: xn = mol fraction of the nth substance listed
Settings: Vibrating tube method

[Ar] [argon] + O=C=O
mass density [kg/m3]
Settings	x2 = 0.9276	x2 = 0.9605
273.15 K, 1000 kPa, Gas	–	22.5
273.15 K, 1001 kPa, Gas	21.2	–
273.15 K, 2000 kPa, Gas	–	46.1
273.15 K, 2001 kPa, Gas	44.2	–
273.15 K, 3000 kPa, Gas	–	75.5
273.15 K, 3001 kPa, Gas	72.9	–
273.15 K, 3600 kPa, Gas	–	106.3
273.15 K, 3800 kPa, Gas	104.5	–
273.15 K, 4901 kPa, Liquid	–	893.5
273.15 K, 5001 kPa, Liquid	–	894.8
273.15 K, 5900 kPa, Liquid	881.4	–
273.15 K, 6000 kPa, Liquid	880.2	–
273.15 K, 6001 kPa, Liquid	–	905.7
273.15 K, 7000 kPa, Liquid	–	915.5
273.15 K, 7001 kPa, Liquid	886.5	–
273.15 K, 8001 kPa, Liquid	898	924
273.15 K, 9001 kPa, Liquid	907.8	–
273.15 K, 9002 kPa, Liquid	–	932.1
273.15 K, 10001 kPa, Liquid	917.3	–
273.15 K, 10002 kPa, Liquid	–	939.5
273.15 K, 11001 kPa, Liquid	925.5	–
273.15 K, 11002 kPa, Liquid	–	946.4
273.15 K, 12000 kPa, Liquid	933.4	952.9
273.15 K, 13000 kPa, Liquid	940.6	959.1
273.15 K, 14000 kPa, Liquid	–	965
273.15 K, 14002 kPa, Liquid	947.4	–
273.15 K, 15000 kPa, Liquid	953.8	–
273.15 K, 15001 kPa, Liquid	–	970.6
273.15 K, 16001 kPa, Liquid	959.9	975.9
273.15 K, 17000 kPa, Liquid	965.7	–
273.15 K, 17002 kPa, Liquid	–	981
273.15 K, 18001 kPa, Liquid	971.2	986
273.15 K, 19001 kPa, Liquid	976.5	–
273.15 K, 19003 kPa, Liquid	–	990.8
273.15 K, 20000 kPa, Liquid	981.5	–
273.15 K, 20001 kPa, Liquid	–	995.3
283.15 K, 1001 kPa, Gas	20.1	20.9
283.15 K, 2000 kPa, Gas	42.2	43.1
283.15 K, 3001 kPa, Gas	68.4	69.6
283.15 K, 4000 kPa, Gas	–	104.2
283.15 K, 4001 kPa, Gas	101.2	–
283.15 K, 4701 kPa, Gas	–	144.6
283.15 K, 5000 kPa, Gas	151.6	–
283.15 K, 5010 kPa, Gas	153	–
283.15 K, 5060 kPa, Gas	161.6	–
283.15 K, 6000 kPa, Liquid	–	827.6
283.15 K, 7001 kPa, Liquid	–	844.5
283.15 K, 7301 kPa, Liquid	801.8	–
283.15 K, 8001 kPa, Liquid	816.3	859.1
283.15 K, 9001 kPa, Liquid	833.9	871.9
283.15 K, 10001 kPa, Liquid	848.6	883.2
283.15 K, 11001 kPa, Liquid	861.6	893.1
283.15 K, 12001 kPa, Liquid	873	902.4
283.15 K, 13000 kPa, Liquid	–	910.9
283.15 K, 13002 kPa, Liquid	883.5	–
283.15 K, 14000 kPa, Liquid	892.6	–
283.15 K, 14001 kPa, Liquid	–	918.7
283.15 K, 15001 kPa, Liquid	901.4	–
283.15 K, 15003 kPa, Liquid	–	926
283.15 K, 16001 kPa, Liquid	909.4	932.8
283.15 K, 17000 kPa, Liquid	–	939.4
283.15 K, 17001 kPa, Liquid	916.9	–
283.15 K, 18000 kPa, Liquid	924.1	945.6
283.15 K, 19001 kPa, Liquid	930.8	–
283.15 K, 19002 kPa, Liquid	–	951.6
283.15 K, 20001 kPa, Liquid	937.2	–
283.15 K, 20003 kPa, Liquid	–	957.3
293.15 K, 1000 kPa, Gas	19.9	–
293.15 K, 1001 kPa, Gas	–	20.4
293.15 K, 2000 kPa, Gas	–	41
293.15 K, 2001 kPa, Gas	40.6	–
293.15 K, 3000 kPa, Gas	64.4	–
293.15 K, 3001 kPa, Gas	–	65
293.15 K, 4000 kPa, Gas	92.6	–
293.15 K, 4001 kPa, Gas	–	94.2
293.15 K, 5000 kPa, Gas	128.2	–
293.15 K, 5001 kPa, Gas	–	132.6
293.15 K, 6000 kPa, Gas	–	198
293.15 K, 6001 kPa, Gas	179	–
293.15 K, 6601 kPa, Gas	253.1	–
293.15 K, 7151 kPa, Liquid	–	728.4
293.15 K, 8002 kPa, Liquid	–	765.2
293.15 K, 8201 kPa, Liquid	680.3	–
293.15 K, 9001 kPa, Liquid	726.1	790.8
293.15 K, 10001 kPa, Liquid	760.3	811.1
293.15 K, 11001 kPa, Liquid	785	827.5
293.15 K, 12000 kPa, Liquid	–	841.6
293.15 K, 12002 kPa, Liquid	804.5	–
293.15 K, 13000 kPa, Liquid	–	853.5
293.15 K, 13003 kPa, Liquid	820.2	–
293.15 K, 14001 kPa, Liquid	–	864.3
293.15 K, 14002 kPa, Liquid	834.1	–
293.15 K, 15000 kPa, Liquid	846.1	–
293.15 K, 15001 kPa, Liquid	–	874.3
293.15 K, 16001 kPa, Liquid	857.1	–
293.15 K, 16002 kPa, Liquid	–	883.4
293.15 K, 17002 kPa, Liquid	867.1	891.9
293.15 K, 18000 kPa, Liquid	876.3	–
293.15 K, 18001 kPa, Liquid	–	899.7
293.15 K, 19001 kPa, Liquid	884.9	906.9
293.15 K, 20001 kPa, Liquid	892.9	913.8
